Activity calls are given as the source filed them. The rule behind the calls is not given here.
How the values were obtained:
[1] = biological target: Cannabinoid receptor 2 (Homo sapiens, UniProt P34972); assay: Agonist activity at human CB2 receptor expressed in CHO-K1 cells assessed as inhibition of NKH-477 induced cAMP production by measuring maximal efficacy incubated for 30 mins by luminescence based analysis relative to control; format: functional, cell-based; details: filed as agonist
[2] = system: THP-1; assay: Antiinflammatory activity in human THP-1 monocytes assessed as decrease in IFN-gamma production incubated for 24 hrs by ELISA coupled qRT-PCR analysis; format: functional, cell-based; details: dose 1-10 µM
[3] = system: THP-1; assay: Antiinflammatory activity in human THP-1 monocytes assessed as decrease in IFN-gamma production at 1 to 10 uM incubated for 24 hrs in the presence of JTE907 by ELISA coupled qRT-PCR analysis; format: functional, cell-based; details: dose 1-10 µM
[4] = system: THP-1; assay: Antiinflammatory against LPS-activated human THP-1 monocytes assessed as decrease in TNF-alpha production at 1 to 10 uM incubated for 24 hrs in the presence of JTE907 by ELISA coupled qRT-PCR analysis; format: functional, cell-based; details: dose 1-10 µM
[5] = system: THP-1; assay: Antiinflammatory against LPS-activated human THP-1 monocytes assessed as decrease in IFN-gamma production at 1 to 10 uM incubated for 24 hrs in the presence of JTE907 by ELISA coupled qRT-PCR analysis; format: functional, cell-based; details: dose 1-10 µM
[6] = system: THP-1; assay: Antiinflammatory activity in PMA-differentiated human THP-1 macrophages assessed as reduction in IL-6 production at 1 to 10 uM incubated for 24 hrs by ELISA coupled qRT-PCR analysis relative to control; format: functional; set-up: scale not given: the % may be the effect or the level left; details: dose 1-10 µM
[7] = system: THP-1; assay: Antiinflammatory activity against LPS-activated PMA-differentiated human THP-1 macrophages assessed as increase in IL-4 production at 1 to 10 uM incubated for 24 hrs by ELISA coupled qRT-PCR analysis; format: functional, cell-based; details: dose 1-10 µM
[8] = system: THP-1; assay: Antiinflammatory activity in PMA-differentiated human THP-1 macrophages assessed as increase in IL-10 production at 1 to 10 uM incubated for 24 hrs in the presence of JTE907 by ELISA coupled qRT-PCR analysis; format: functional, cell-based; details: dose 1-10 µM
[9] = system: THP-1; assay: Antiinflammatory activity in PMA-differentiated human THP-1 macrophages assessed as decrease in IL-6 production at 1 to 10 uM incubated for 24 hrs in the presence of JTE907 by ELISA coupled qRT-PCR analysis; format: functional, cell-based; details: dose 1-10 µM
[10] = system: THP-1; assay: Antiinflammatory activity in LPS-activated PMA-differentiated human THP-1 macrophages assessed as increase in IL-4 production at 1 to 10 uM incubated for 24 hrs in the presence of JTE907 by ELISA coupled qRT-PCR analysis; format: functional, cell-based; details: dose 1-10 µM
[11] = system: THP-1; assay: Antiinflammatory activity in LPS-activated PMA-differentiated human THP-1 macrophages assessed as decrease in IL-6 production at 1 to 10 uM incubated for 24 hrs in the presence of JTE907 by ELISA coupled qRT-PCR analysis; format: functional, cell-based; details: dose 1-10 µM
[12] = system: THP-1; assay: Antiinflammatory activity in human THP-1 monocytes assessed as decrease in IL-6 production at 10 uM incubated for 24 hrs in the presence of JTE907 by ELISA coupled qRT-PCR analysis; format: functional, cell-based
[13] = system: THP-1; assay: Antiinflammatory against LPS-activated human THP-1 monocytes assessed as increase in IL-4 production at 10 uM incubated for 24 hrs in the presence of JTE907 by ELISA coupled qRT-PCR analysis; format: functional, cell-based
[14] = system: THP-1; assay: Antiinflammatory activity in PMA-differentiated human THP-1 macrophages assessed as reduction in IFN-gamma production at 10 uM incubated for 24 hrs by ELISA coupled qRT-PCR analysis relative to control; format: functional; set-up: scale not given: the % may be the effect or the level left
[15] = system: THP-1; assay: Antiinflammatory activity in PMA-differentiated human THP-1 macrophages assessed as increase in IL-4 production at 10 uM incubated for 24 hrs by ELISA coupled qRT-PCR analysis; format: functional, cell-based
[16] = system: THP-1; assay: Antiinflammatory activity in PMA-differentiated human THP-1 macrophages assessed as increase in IL-10 production at 10 uM incubated for 24 hrs by ELISA coupled qRT-PCR analysis; format: functional, cell-based
[17] = system: THP-1; assay: Antiinflammatory activity in PMA-differentiated human THP-1 macrophages assessed as increase in IL-10 production at 10 uM incubated for 24 hrs in the presence of JTE907 by ELISA coupled qRT-PCR analysis; format: functional, cell-based
[18] = system: THP-1; assay: Antiinflammatory activity in LPS-activated PMA-differentiated human THP-1 macrophages assessed as increase in IL-10 production at 10 uM incubated for 24 hrs in the presence of JTE907 by ELISA coupled qRT-PCR analysis; format: functional, cell-based
[19] = system: THP-1; assay: Antiinflammatory activity in LPS-activated PMA-differentiated human THP-1 macrophages assessed as decrease in IL-6 production at 10 uM incubated for 24 hrs in the presence of JTE907 by ELISA coupled qRT-PCR analysis; format: functional, cell-based
[20] = system: THP-1; assay: Antiinflammatory activity in LPS-activated PMA-differentiated human THP-1 macrophages assessed as decrease in TNF-alpha production at 10 uM incubated for 24 hrs in the presence of JTE907 by ELISA coupled qRT-PCR analysis; format: functional, cell-based
[21] = system: THP-1; assay: Antiinflammatory activity in human THP-1 monocytes assessed as increase in IL-4 production at 10 uM incubated for 24 hrs in the presence of N-(adamantan-1-yl)-4-(pentylamino)-[1,1'-biphenyl]-3-carboxamide by ELISA coupled qRT-PCR analysis; format: functional, cell-based
[22] = system: THP-1; assay: Antiinflammatory activity in human THP-1 monocytes assessed as increase in IL-10 production at 10 uM incubated for 24 hrs in the presence of N-(adamantan-1-yl)-4-(pentylamino)-[1,1'-biphenyl]-3-carboxamide by ELISA coupled qRT-PCR analysis; format: functional, cell-based
[23] = system: THP-1; assay: Antiinflammatory activity against LPS-activated human THP-1 monocytes assessed as increase in IL-4 production at 10 uM incubated for 24 hrs in the presence of N-(adamantan-1-yl)-4-(pentylamino)-[1,1'-biphenyl]-3-carboxamide by ELISA coupled qRT-PCR analysis; format: functional, cell-based
[24] = system: THP-1; assay: Antiinflammatory activity against LPS-activated human THP-1 monocytes assessed as decrease in IL-6 production at 10 uM incubated for 24 hrs in the presence of N-(adamantan-1-yl)-4-(pentylamino)-[1,1'-biphenyl]-3-carboxamide by ELISA coupled qRT-PCR analysis; format: functional, cell-based
[25] = system: THP-1; assay: Antiinflammatory activity in PMA-differentiated human THP-1 monocytes assessed as decrease in IFN-gamma production at 10 uM incubated for 24 hrs in the presence of N-(adamantan-1-yl)-4-(pentylamino)-[1,1'-biphenyl]-3-carboxamide by ELISA coupled qRT-PCR analysis; format: functional, cell-based
[26] = system: THP-1; assay: Antiinflammatory activity against LPS-activated PMA-differentiated human THP-1 monocytes assessed as increase in IL-4 production at 10 uM incubated for 24 hrs in the presence of N-(adamantan-1-yl)-4-(pentylamino)-[1,1'-biphenyl]-3-carboxamide by ELISA coupled qRT-PCR analysis; format: functional, cell-based
[27] = system: THP-1; assay: Antiinflammatory activity against LPS-activated PMA-differentiated human THP-1 monocytes assessed as decrease in IL-6 production at 10 uM incubated for 24 hrs in the presence of N-(adamantan-1-yl)-4-(pentylamino)-[1,1'-biphenyl]-3-carboxamide by ELISA coupled qRT-PCR analysis; format: functional, cell-based

Chain of Cannabinoid receptor 2 (P34972 whole entry): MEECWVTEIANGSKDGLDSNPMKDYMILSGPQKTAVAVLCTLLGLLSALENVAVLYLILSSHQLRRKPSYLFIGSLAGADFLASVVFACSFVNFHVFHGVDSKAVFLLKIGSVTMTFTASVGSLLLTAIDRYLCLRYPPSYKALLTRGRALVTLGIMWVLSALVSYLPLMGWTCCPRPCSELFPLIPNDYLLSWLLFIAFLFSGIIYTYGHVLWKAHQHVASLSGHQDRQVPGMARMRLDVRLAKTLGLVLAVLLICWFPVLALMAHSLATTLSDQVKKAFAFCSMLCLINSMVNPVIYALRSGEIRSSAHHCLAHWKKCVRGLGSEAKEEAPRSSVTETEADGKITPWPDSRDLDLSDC

CCCCCNc1ccccc1C(=O)NC12CC3CC(CC(C3)C1)C2
Emax [1]: 77.2% | Activity [2]: Dose-Dependent Effect | Activity [3]: inactive | Activity [4]: inactive | Activity [5]: inactive | Activity [6]: 50% | Activity [7]: Active | Activity [8]: inactive | Activity [9]: inactive | Activity [10]: inactive | Activity [11]: inactive

O=C(NC1CCCCC1)c1cn(CCN2CCOCC2)c2cc(Cl)ccc2c1=O
Activity [12]: inactive | Activity [13]: inactive | Activity [14]: 50% | Activity [15]: Active | Activity [16]: Active | Activity [17]: inactive | Activity [18]: inactive | Activity [19]: inactive | Activity [20]: inactive | Activity [21]: inactive | Activity [22]: inactive | Activity [23]: inactive | Activity [24]: inactive | Activity [25]: inactive | Activity [26]: inactive | Activity [27]: inactive
